Reference: US11427567B2, “Imidazolyl pyrimidinylamine compounds as CDK2 inhibitors” (Incyte Corporation, priority 2019, dated 2022)

Each molecule was assayed against CDK2/Cyclin E1 (Homo sapiens (Human), UniProt P24941) (assay: CDK2/Cyclin E1 HTRF enzyme activity assay (Example A)). Settings: 1 mM ATP.
Assay type: biochemical
Protocol: Assays were conducted in white 384-well polystyrene plates in a final reaction volume of 8 μL. […] HTRF signals were read after 1 hour at room temperature on a PHERAstar FS plate reader (BMG Labtech). Data was analyzed with IDBS XLFit and GraphPad Prism 5.0 software using a three or four parameter dose response curve to determine IC50 for each compound.

IC50, ≤ 50 nM:
C[C@@H]1CN(S(C)(=O)=O)CC[C@@H]1Nc1ncc(C(F)(F)F)c(-c2cn(-c3ccc(CO)cc3Cl)cn2)n1 [Example 234, (3-Chloro-4-(4-(2-(((3R,4S)-3-methyl-1-(methylsulfonyl)piperidin-4-yl)amino)-5-(trifluoromethyl)pyrimidin-4-yl)-1H-imidazol-1-yl)phenyl)methanol]
CCN(C)Cc1ccc(-n2cnc(-c3nc(NC4CCN(S(C)(=O)=O)CC4)ncc3C(F)(F)F)c2)c(C(F)(F)F)c1 [Example 257, 4-(1-(4-((Ethyl(methyl)amino)methyl)-2-(trifluoromethyl)phenyl)-1H-imidazol-4-yl)-N-(1-(methylsulfonyl)piperidin-4-yl)-5-(trifluoromethyl)pyrimidin-2-amine]
Cc1nc(-c2nc(NC3CCN(S(C)(=O)=O)CC3)ncc2C(F)(F)F)cn1-c1ccc(C2CN(C[C@@H](C)O)C2)cc1F [Example 421, (R)-1-(3-(3-Fluoro-4-(2-methyl-4-(2-((1-(methylsulfonyl)piperidin-4-yl)amino)-5-(trifluoromethyl)pyrimidin-4-yl)-1H-imidazol-1-yl)phenyl)azetidin-1-yl)propan-2-ol]
CS(=O)(=O)N1CC[C@@H](Nc2ncc(C(F)(F)F)c(-c3cn(-c4ccc(CN5CCC5)cc4Cl)cn3)n2)[C@H](F)C1 [Example 399, 4-(1-(4-(Azetidin-1-ylmethyl)-2-chlorophenyl)-1H-imidazol-4-yl)-N-((3R,4R)-3-fluoro-1-(methylsulfonyl)piperidin-4-yl)-5-(trifluoromethyl)pyrimidin-2-amine]
CN(C)CCOc1ccc(-n2cnc(-c3nc(NC4CCN(S(C)(=O)=O)CC4)ncc3C(F)(F)F)c2)c(C#N)c1 [Example 435, 5-(2-(Dimethylamino)ethoxy)-2-(4-(2-((1-(methylsulfonyl)piperidin-4-yl)amino)-5-(trifluoromethyl)pyrimidin-4-yl)-1H-imidazol-1-yl)benzonitrile]
Cn1nncc1-c1ccc(-n2cnc(-c3nc(NC4CCN(S(C)(=O)=O)CC4)ncc3C(F)(F)F)c2)c(Cl)c1 [Example 122, 4-(1-(2-Chloro-4-(1-methyl-1H-1,2,3-triazol-5-yl)phenyl)-1H-imidazol-4-yl)-N-(1-(methyl-sulfonyl)piperidin-4-yl)-5-(trifluoro-methyl)pyrimidin-2-amine]
Cn1cc(-c2nc(NC3CCN(S(C)(=O)=O)CC3)ncc2C(F)(F)F)nc1CO [Example 17, (1-Methyl-4-(2-((1-(methylsulfonyl)piperidin-4-yl)amino)-5-(trifluoromethyl)pyrimidin-4-yl)-1H-imidazol-2-yl)methanol]
Cc1nc(-c2nc(NC3CCN(S(C)(=O)=O)CC3)ncc2C#N)cn1-c1ccc(CN(C)C)cc1Cl [Example 288, 4-(1-(2-Chloro-4-((dimethylamino)methyl)phenyl)-2-methyl-1H-imidazol-4-yl)-2-((1-(methylsulfonyl)piperidin-4-yl)amino)pyrimidine-5-carbonitrile]
CC1(O)CN(Cc2ccc(-n3cnc(-c4nc(NC5CCN(S(C)(=O)=O)CC5)ncc4C(F)(F)F)c3)c(C(F)(F)F)c2)C1 [Example 449, 3-Methyl-1-(4-(4-(2-((1-(methylsulfonyl)piperidin-4-yl)amino)-5-(trifluoromethyl)pyrimidin-4-yl)-1H-imidazol-1-yl)-3-(trifluoromethyl)benzyl)azetidin-3-ol]
CC(C)(O)Cn1cnc(-c2nc(N[C@H]3CCN(S(C)(=O)=O)C[C@H]3F)ncc2C(F)(F)F)c1 [Example 325, 1-(4-(2-(((3R,4S)-3-Fluoro-1-(methylsulfonyl)piperidin-4-yl)amino)-5-(trifluoromethyl)pyrimidin-4-yl)-1H-imidazol-1-yl)-2-methylpropan-2-ol]
CS(=O)(=O)N1CC[C@H](Nc2ncc(C(F)(F)F)c(-c3cn(-c4cccnc4C(F)(F)F)cn3)n2)[C@H](F)C1 [Example 48, N-((3R,4S)-3-Fluoro-1-(methylsulfonyl)piperidin-4-yl)-5-(trifluoromethyl)-4-(1-(2-(trifluoromethyl)pyridin-3-yl)-1H-imidazol-4-yl)pyrimidin-2-amine]
CS(=O)(=O)N1CCC(Nc2ncc(C(F)(F)F)c(-c3cn(CC(F)(F)F)cn3)n2)CC1 [Example 23, N-(1-(Methylsulfonyl)piperidin-4-yl)-4-(1-(2,2,2-trifluoroethyl)-1H-imidazol-4-yl)-5-(trifluoromethyl)pyrimidin-2-amine]
Cc1c(C#N)cccc1-n1cnc(-c2nc(NC3CCN(S(C)(=O)=O)CC3)ncc2C(F)(F)F)c1 [Example 43, 2-Methyl-3-(4-(2-((1-(methylsulfonyl)piperidin-4-yl)amino)-5-(trifluoromethyl)pyrimidin-4-yl)-1H-imidazol-1-yl)benzonitrile]
COC1CN(Cc2ccc(-n3cnc(-c4nc(NC5CCN(S(C)(=O)=O)CC5)ncc4C(F)(F)F)c3)c(Cl)c2)C1 [Example 195, 4-(1-(2-Chloro-4-((3-methoxyazetidin-1-yl)methyl)phenyl)-1H-imidazol-4-yl)-N-(1-(methylsulfonyl)-piperidin-4-yl)-5-(trifluoromethyl)-pyrimidin-2-amine]
COCCNc1ccc(-n2cc(-c3nc(NC4CCN(S(C)(=O)=O)CC4)ncc3C(F)(F)F)nc2C)c(F)c1 [Example 112, 4-(1-(2-Fluoro-4-((2-methoxyethyl)-amino)phenyl)-2-methyl-1H-imidazol-4-yl)-N-(1-(methyl-sulfonyl)piperidin-4-yl)-5-(trifluoro-methyl)pyrimidin-2-amine]
CN(C)CCc1cccc(-n2cnc(-c3nc(NC4CCN(S(C)(=O)=O)CC4)ncc3C(F)(F)F)c2)c1Cl [Example 370, 4-(1-(2-Chloro-3-(2-(dimethylamino)ethyl)phe-nyl)-1H-imidazol-4-yl)-N-(1-(methylsulfonyl)piperidin-4-yl)-5-(trifluoromethyl)pyrimi-din-2-amine]
CS(=O)(=O)N1CCC(Nc2ncc(C(F)(F)F)c(-c3cn(-c4cccc(CCN5CCOCC5)c4Cl)cn3)n2)CC1 [Example 369, 4-(1-(2-Chloro-3-(2-morpholinoethyl)phenyl)-1H-imidazol-4-yl)-N-(1-(methylsulfonyl)piperidin-4-yl)-5-(trifluoromethyl)pyrimidin-2-amine]
CN1CCN(Cc2cccc(-n3cnc(-c4nc(NC5CCN(S(C)(=O)=O)CC5)ncc4C(F)(F)F)c3)c2Cl)CC1 [Example 78, 4-(1-(2-Chloro-3-((4-methylpiperazin-1-yl)methyl)phenyl)-1H-imidazol-4-yl)-N-(1-(methylsulfonyl)piperidin-4-yl)-5-(trifluoromethyl)pyrimidin-2-amine]
CCN1CCN(c2nccc(-n3cnc(-c4nc(NC5CCN(S(C)(=O)=O)CC5)ncc4C(F)(F)F)c3)c2C#N)CC1 [Example 315, 2-(4-Ethylpiperazin-1-yl)-4-(4-(2-((1-(methylsulfonyl)piperidin-4-yl)amino)-5-(trifluoromethyl)pyrimidin-4-yl)-1H-imidazol-1-yl)nicotinonitrile]
